IC50, Ki and Activity data for twelve compounds are collected here from ChEMBL document CHEMBL1149220, “1-(2-Naphthyl)-1H-pyrazole-5-carboxylamides as potent factor Xa inhibitors. Part 2: A survey of P4 motifs” (Bioorg Med Chem Lett, 2004).

The structures appear in SMILES notation. Where only a bound is given, the exact number is not on record here.

T1 sequence (P00742 41-179 limits assumed): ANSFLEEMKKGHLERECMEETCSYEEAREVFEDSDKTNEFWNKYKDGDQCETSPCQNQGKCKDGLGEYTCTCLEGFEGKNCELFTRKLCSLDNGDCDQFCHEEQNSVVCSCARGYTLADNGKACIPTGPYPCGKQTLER
T1 sequence (P00742 235-488 limits assumed): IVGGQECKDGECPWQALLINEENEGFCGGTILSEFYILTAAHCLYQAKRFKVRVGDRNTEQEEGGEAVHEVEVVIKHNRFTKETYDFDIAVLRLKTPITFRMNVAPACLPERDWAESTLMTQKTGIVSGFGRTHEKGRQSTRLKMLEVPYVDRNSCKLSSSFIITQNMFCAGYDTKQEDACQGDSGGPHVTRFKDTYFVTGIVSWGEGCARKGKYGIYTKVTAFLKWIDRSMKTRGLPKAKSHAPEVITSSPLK

The first experiment concerns the target T1, Coagulation factor X (Homo sapiens, UniProt P00742). Kind of experiment: Inhibitory concentration against human Coagulation factor X.
As usually defined, the IC50 is the point on the concentration scale where inhibition reaches its midpoint. A high value points to weaker potency. Compound `Cc1cc(C(=O)Nc2ccc(-n3ccnc3CN(C)C)cc2F)n(-c2cc3ccccc3cc2S(C)(=O)=O)n1` gave an IC50 of 8 nM.
Regarding `Cc1cc(C(=O)Nc2ccc(N3CCCCC3=O)cc2)n(-c2ccc3cc(Cl)ccc3c2)n1`, the IC50 was determined as 3 nM.
Same read-out and setting: to `Cc1cc(C(=O)Nc2ccc(-c3ccccc3S(N)(=O)=O)cc2F)n(-c2ccc3cc(Cl)ccc3c2)n1` belongs 3 nM; to `Cc1cc(C(=O)Nc2ccc(C(=O)N(C)C)cc2)n(-c2ccc3cc(Cl)ccc3c2)n1`, 13 nM.
Same read-out and setting: to `Cc1cc(C(=O)Nc2ccc(-n3ccnc3C)cc2)n(-c2ccc3cc(Cl)ccc3c2)n1` belongs 8 nM.
As to `Cc1cc(C(=O)Nc2ccc(-n3ccnc3CN(C)C)cc2)n(-c2ccc3cc(Cl)ccc3c2)n1`, the IC50 was determined as 8 nM.
Compound `Cc1cc(C(=O)Nc2ccc(C(=O)N3CCCC3)cc2)n(-c2ccc3cc(Cl)ccc3c2)n1` showed an IC50 of 6 nM.
Still for that read-out and setting: to `Cc1cc(C(=O)Nc2ccc(-c3ccccc3S(C)(=O)=O)cc2F)n(-c2ccc3cc(Cl)ccc3c2)n1` belongs 6 nM.
`Cc1cc(C(=O)Nc2ccc(-c3ccccc3S(N)(=O)=O)cc2F)n(-c2cc3ccccc3cc2S(C)(=O)=O)n1` came in with an IC50 of 5 nM. This IC50 and that of the compound before are within 1.5-fold of each other.

The next experiment has as its target T1, Coagulation factor X. As to the kind of experiment: Binding affinity against Coagulation factor X.
One may read the Ki as a measure of affinity in units of concentration, obtained from inhibition or displacement. Compound `Cc1cc(C(=O)Nc2ccc(-n3ccnc3CN(C)C)cc2F)n(-c2cc3ccccc3cc2S(C)(=O)=O)n1` yielded a Ki of 3.2 nM.
`Cc1cc(C(=O)Nc2ccc(N3CCCCC3=O)cc2)n(-c2ccc3cc(Cl)ccc3c2)n1`: affinity was put at a Ki of 1.1 nM.
In turn, `Cc1cc(C(=O)Nc2ccc(-c3ccccc3S(C)(=O)=O)cc2)n(-c2ccc3cc(Cl)ccc3c2)n1` had a Ki of 1.4 nM.
In turn, `Cc1cc(C(=O)Nc2ccc(-c3ccccc3S(N)(=O)=O)cc2F)n(-c2ccc3cc(Cl)ccc3c2)n1` returned a Ki of 3.4 nM.
Consider `Cc1cc(C(=O)Nc2ccc(-n3ccnc3C)cc2)n(-c2ccc3cc(Cl)ccc3c2)n1`, for which the Ki worked out at 2.9 nM.
The same measure, in the same setting: to `Cc1cc(C(=O)Nc2ccc(-n3ccnc3CN(C)C)cc2)n(-c2ccc3cc(Cl)ccc3c2)n1` belongs 2.8 nM; to `Cc1cc(C(=O)Nc2ccc(C(=O)N3CCCC3)cc2)n(-c2ccc3cc(Cl)ccc3c2)n1`, 1.8 nM; to `Cc1cc(C(=O)Nc2ccc(-c3ccccc3S(C)(=O)=O)cc2F)n(-c2ccc3cc(Cl)ccc3c2)n1`, 1.8 nM.
Take `Cc1cc(C(=O)Nc2ccc(-c3ccccc3S(N)(=O)=O)cc2F)n(-c2cc3ccccc3cc2S(C)(=O)=O)n1`: affinity was put at a Ki of 1.1 nM.

The target in another experiment is T1, Coagulation factor X. Kind of experiment: In vitro anticoagulant potency measured in human plasma by thrombin generation (TG) assay expressed as 2 x TG. The class given is functional, cell-free.
As to `Cc1cc(C(=O)Nc2ccc(-n3ccnc3CN(C)C)cc2F)n(-c2cc3ccccc3cc2S(C)(=O)=O)n1`, the Activity was 1.7 µM.
`Cc1cc(C(=O)Nc2ccc(N3CCCCC3=O)cc2)n(-c2ccc3cc(Cl)ccc3c2)n1` came in with an Activity of more than 5 µM.
Compound `Cc1cc(C(=O)Nc2ccc(-c3ccccc3S(C)(=O)=O)cc2)n(-c2ccc3cc(Cl)ccc3c2)n1` displayed an Activity of more than 5 µM.
Still for that read-out and setting: to `Cc1cc(C(=O)Nc2ccc(-c3ccccc3S(N)(=O)=O)cc2F)n(-c2ccc3cc(Cl)ccc3c2)n1` belongs more than 5 µM; to `Cc1cc(C(=O)Nc2ccc(C(=O)N(C)C)cc2)n(-c2ccc3cc(Cl)ccc3c2)n1`, more than 5 µM.
On the same count and under the same terms, to `Cc1cc(C(=O)Nc2ccc(-n3ccnc3C)cc2)n(-c2ccc3cc(Cl)ccc3c2)n1` belongs more than 5 µM; to `Cc1cc(C(=O)Nc2ccc(-n3ccnc3CN(C)C)cc2)n(-c2ccc3cc(Cl)ccc3c2)n1`, more than 5 µM.
The same measure, in the same setting: to `Cc1cc(C(=O)Nc2ccc(-c3ccccc3S(N)(=O)=O)cc2)n(-c2ccc3cc(Cl)ccc3c2)n1` belongs more than 5 µM; to `Cc1cc(C(=O)Nc2ccc(C(=O)N3CCCC3)cc2)n(-c2ccc3cc(Cl)ccc3c2)n1`, more than 5 µM; to `Cc1cc(C(=O)Nc2ccc(-n3ccnc3CN(C)C)cc2F)n(-c2ccc3cc(Cl)ccc3c2)n1`, 3 µM.
`Cc1cc(C(=O)Nc2ccc(-c3ccccc3S(C)(=O)=O)cc2F)n(-c2ccc3cc(Cl)ccc3c2)n1` showed an Activity of more than 5 µM.
In the case of `Cc1cc(C(=O)Nc2ccc(-c3ccccc3S(N)(=O)=O)cc2F)n(-c2cc3ccccc3cc2S(C)(=O)=O)n1`, the Activity was found to be 4.5 µM.
